Reference: patent US7812039B2, “Drugs for chronic pains” (Nicox S.A., priority 2001, dated 2010)

Tests used:
Assay type in all cases: in vivo
Wistar adult male rats = assay: Acute toxicity in the diabetic animal (streptozocin)
Experimental: In 50 Wistar adult male rats weighing 165-190 g, diabetes was induced by injection i.v. of a single dose of streptozocin (65 mg/kg in 1 ml/kg buffer citrate at pH 4.5).
After one week the animals were distributed in three groups of 10 rats each and treated per os for three days with daily doses of 100 mg/kg of gabapentin and NO-gabapentin. The controls were treated only with streptozocin.
Death rate was monitored for 7 days from the last treatment.

[1] = test system: female Sprague-Dawley rats; assay: Mechanical allodynia (von Frey hairs, vocalization threshold) in spinally-injured rats, repeated administration; conditions: for vocalization threshold (g) to mechanical stimulation with von Frey hairs: 1 hour after administration
Experimental: In this experiment the effect of repeated administration of NO-gabapentin was assessed and compared with that of the precursor drug gabapentin in a rat model of neuropathic pain. In 4 groups of female Sprague-Dawley rats weighting 200 g photochemically-induced ischemic spinal cord injury was produced according to methods describe by Xu et al. Pain, 1992, 48, 279-290.
Spinally-injured rats developed a chronic pain syndrome, including marked mechanical and cold allodynia. The rats were injured 3-6 months before the beginning of the experiment. Each of the groups of rats were i.p. treated daily for 10 day, respectively, with 60 mg/kg (167.2 μmole/Kg) of NO-gabapentin and with 30 mg/Kg (175 μmole/Kg) of gabapentin. Controls (two groups) received only the vehicle. Each day the treatment of the animals was made at the same time. During the experiment vocalized thresholds to graded mechanical touch/pressure were tested with von Frey hairs.
During testing, rats were gently restrained in a standing position and the von Frey hair was pushed onto the skin until filament becomes bent. The frequency of stimulation was about 1/s and repeated 5-10 times. The intensity of stimulation (g) which induced consistent vocalization (>75% response rate) is considered as pain threshold. Behavioral testings were carried out before the daily for the control group and 1 hour after administration for the treated groups.

[2] = test system: female Sprague-Dawley rats; assay: Cold allodynia (ethyl chloride spray) in spinally-injured rats, acute administration
Description: (§1) In 6 groups of female Sprague-Dawley rats weighting 200 g, photochemically-induced ischemic spinal cord injury was produced according to methods described by Xu et al. Pain, 1992, 48, 279-290. Spinally-injured rats developed a chronic pain syndrome, including marked mechanical and cold allodynia. The rats were injured 3-6 months before the beginning of the experiment.
(§2) Each group of rats was i.p. treated, respectively, with one of the following compounds using one of the above indicated doses: • NO-gabapentin at doses of 20 mg/Kg (55 μmole/Kg), or 60 mg/Kg (167.21 μmole/Kg), or 100 mg/kg (278.7 μmole/Kg), dissolved in saline, single dose, i. p.); • gabapentin at doses of 30 mg/Kg ([…]) or 100 mg/kg ([…]), dissolved in saline, single dose i. p.); • the control group received the vehicle; The response to cold was tested by spray-applying ethyl chloride on the shaved allodynic skin area at time 0 (i.p. injection) and then at 30′, 120′ and 240′. The response was evaluated according to the following score: • 0=no response; • 1=localized response (skin twitch and contraction), no vocalization; • 2=transient vocalization, moderate struggle; • 3=sustained vocalization and aggression.

Swiss male mice = assay: "Paw-licking" test (formalin injected in the paw); conditions: for Number "paw licking" %: 1 h before formalin, counted 15 min, percentage of control group
Experimental: Four groups of Swiss male mice (20-25 g, Charles River) each formed by 10 animals, received by intraperitoneal injection Gabapentin (90 mg/kg) or the compound of formula (XVI) (Example 3), called NO-Gabapentin at the doses of 50 mg/kg, in a saline solution. The control group received the same volume of saline solution. One hour after the administration of the compound solutions, formalin (10 μl) was injected in the paw. In the 15 minutes subsequent to formalin administration, for each animal, the number of times wherein it licked its paw was counted. The analysis was carried out “in blind”.

Wistar adult rats = assay: Neuropathic pain model, ligature of the right sciatic nerve (Bennett), withdrawal latencies; conditions: 14 days after ligature, percentage of control response
Experimental: Wistar adult rats weighing about 200 grams were used, in the experimental model described by Bennett G J, Xie Y K, Pain 1988, 33(1): 87-107. The pain response (withdrawal latencies) is determined 14 days after the ligature of the right sciatic nerve. The results obtained are reported in Table 2 and have been expressed as a percentage ratio of the difference between the response from the intact paw and from the injured paw, to the response of the control animals, that have been injected with the carrier and undergone the nerve ligature. The groups were of 10 rats each.

[3] = test system: female Sprague-Dawley rats; assay: Motor performance (combined testing system) in spinally-injured rats
Description: as §1, §2
The effect of the compounds on motor activity was also evaluated using a combined testing system as described in Hao, J. X. and Xu, X. J., Pain, 1996, 66, 279-286.

Cl.NCC1(CC(=O)Oc2cccc(CO[N+](=O)[O-])c2)CCCCC1 [NO-gabapentin, 1-(aminomethyl)cyclohexan acetic acid 3-(nitrooxymethyl)phenyl hydrochloride ester]
death rate with respect to animals treated with gabapentin (Wistar adult male rats; diabetic animals, 100 mg/kg per os for three days): less than half | vocalization threshold (g) to mechanical stimulation with von Frey hairs ([1]; 167.2 μmole/kg i.p. daily, Day 1): 100 g | vocalization threshold (g) to mechanical stimulation with von Frey hairs ([1]; 167.2 μmole/kg i.p. daily, Day 2): 200 g | vocalization threshold (g) to mechanical stimulation with von Frey hairs ([1]; 167.2 μmole/kg i.p. daily, Day 4): 400 g | vocalization threshold (g) to mechanical stimulation with von Frey hairs ([1]; 167.2 μmole/kg i.p. daily, Day 6): 90 g | maintenance of significant effect on mechanical allodynia, in words ([1]; 60 mg/kg (167.2 μmole/Kg) i.p. daily): a significant effect was maintained up to day 6 | effect on mechanical allodynia, in words ([1]; 60 mg/kg (167.2 μmole/Kg) i.p. daily for 10 day): alleviated mechanical allodynia following the first administration | response to cold stimulation, score (0-3) ([2]; 55.7 μmole/kg i.p. single dose, time 0 min): 2 | response to cold stimulation, score (0-3) ([2]; 55.7 μmole/kg i.p. single dose, time 30 min): 2 | response to cold stimulation, score (0-3) ([2]; 55.7 μmole/kg i.p. single dose, time 120 min): 2 | response to cold stimulation, score (0-3) ([2]; 167.2 μmole/kg i.p. single dose, time 0 min): 2 | response to cold stimulation, score (0-3) ([2]; 167.2 μmole/kg i.p. single dose, time 30 min): 1 | response to cold stimulation, score (0-3) ([2]; 167.2 μmole/kg i.p. single dose, time 120 min): 1 | response to cold stimulation, score (0-3) ([2]; 278.7 μmole/kg i.p. single dose, time 0 min): 2 | response to cold stimulation, score (0-3) ([2]; 278.7 μmole/kg i.p. single dose, time 30 min): 1 | response to cold stimulation, score (0-3) ([2]; 278.7 μmole/kg i.p. single dose, time 120 min): 1 | response to cold stimulation, score (0-3) ([2]; 278.7 μmole/kg i.p. single dose, time 240 min): 1 | duration of significant effect on cold allodynia ([2]; 60 mg/kg (167.21 μmole/Kg) i.p.): 120 min | duration of significant effect on cold allodynia ([2]; 100 mg/kg (278.7 μmole/Kg) i.p.): 240 min | effect on cold allodynia, in words ([2]; acute administration, 20, 60 or 100 mg/kg i.p.): alleviated in a dose-dependent way cold allodynia | Number "paw licking" % (Swiss male mice; 50 mg/kg i.p.): 70% | inhibition of "paw-licking" compared with starting drug, in words (Swiss male mice; NO-gabapentin 50 mg/kg vs Gabapentin 90 mg/kg i.p.): more active than the starting drug

CC(=O)Oc1ccccc1C(=O)Oc1cccc(CO[N+](=O)[O-])c1 [NO-ASA, 2-acetylsalicylic acid (3-nitrooxymethyl)phenyl ester]
response % (Wistar adult rats; NO-ASA 100 mg/Kg p.o.): 82%

NCC1(CC(=O)O)CCCCC1 [Gabapentin]
lethality % (Wistar adult male rats; 100 mg/kg per os daily for three days, diabetic rats, monitored 7 days from last treatment): 50% | vocalization threshold (g) to mechanical stimulation with von Frey hairs ([1]; 175 μmole/kg i.p. daily, Day 1): 5 g | vocalization threshold (g) to mechanical stimulation with von Frey hairs ([1]; 175 μmole/kg i.p. daily, Day 2): 6 g | vocalization threshold (g) to mechanical stimulation with von Frey hairs ([1]; 175 μmole/kg i.p. daily, Day 4): 70 g | vocalization threshold (g) to mechanical stimulation with von Frey hairs ([1]; 175 μmole/kg i.p. daily, Day 6): 90 g | effect on mechanical allodynia, in words ([1]; 30 mg/Kg (175 μmole/Kg) i.p. daily for 10 day): did not produce a significant effect up to the second day | effect on mechanical allodynia compared with NO-gabapentin, in words ([1]; gabapentin 30 mg/Kg vs NO-gabapentin 60 mg/kg i.p. daily): the effect was lower than that of NO-gabapentin | response to cold stimulation, score (0-3) ([2]; 175 μmole/kg i.p. single dose, time 0 min): 2 | response to cold stimulation, score (0-3) ([2]; 175 μmole/kg i.p. single dose, time 30 min): 2 | response to cold stimulation, score (0-3) ([2]; 175 μmole/kg i.p. single dose, time 120 min): 2 | response to cold stimulation, score (0-3) ([2]; 175 μmole/kg i.p. single dose, time 240 min): 2 | antiallodynic effect (cold), in words ([2]; 30 mg/Kg (175 μmole/Kg) i.p.): did not produce a significant antiallodynic effect | Number "paw licking" % (Swiss male mice; 90 mg/kg i.p.): 80% | motor performance (score) ([3]; 175 μmole/kg i.p., time 0 min): 20 | motor performance (score) ([3]; 175 μmole/kg i.p., time 30 min): 20 | motor performance (score) ([3]; 175 μmole/kg i.p., time 120 min): 20 | motor performance (score) ([3]; 175 μmole/kg i.p., time 240 min): 20 | motor performance (score) ([3]; 584 μmole/kg i.p., time 0 min): 15 | motor performance (score) ([3]; 584 μmole/kg i.p., time 30 min): 30 | motor performance (score) ([3]; 584 μmole/kg i.p., time 120 min): 30 | motor performance (score) ([3]; 584 μmole/kg i.p., time 240 min): 25 | effect on motor activity, in words ([3]; 100 mg/kg (584 μmole/Kg) i.p.): induced motor impairment and sedation

CN(C)CCCN1c2ccccc2CCc2ccc(Cl)cc21 [Clomipramine, clomipramine]
response % (Wistar adult rats; clomipramine 10 mg/kg i.p.): 72%
